Data taken from patent publication US7282512B2, “Cycloalkyl ketoamides derivatives useful as cathepsin K inhibitors” (SmithKline Beecham Corporation, priority 2002, dated 2007).
pKi: −log10 of the molar value.

Assays:
[1] = molecular target: T1, human cathepsin K (Homo sapiens, UniProt P43235); assay: cathepsin K inhibition assay, fluorogenic substrate Cbz-Phe-Arg-AMC, progress curve method; assay type: biochemical; details: Table 1; human recombinant enzyme, pH 5.5, 30° C., 10 μM substrate; read-out: hcatK Ki
T1 construct: The proform of cathepsin K was converted to mature cathepsin K by brief exposure to pH 4; made in house; host or cells: baculovirus; Trichoplusia ni High Five cells (virus raised in Sf-9)
T1 sequence (P43235 115-329): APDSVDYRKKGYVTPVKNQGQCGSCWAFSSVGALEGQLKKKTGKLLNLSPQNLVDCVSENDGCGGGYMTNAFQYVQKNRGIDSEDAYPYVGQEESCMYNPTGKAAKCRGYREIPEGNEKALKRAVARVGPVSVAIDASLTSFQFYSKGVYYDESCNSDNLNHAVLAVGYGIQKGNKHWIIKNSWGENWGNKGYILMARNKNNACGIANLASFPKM
Description: All assays for cathepsin K were carried out with human and rat recombinant enzyme. Assays for cathepsins S & V were also carried out with human recombinant enzyme. Assays for human cathepsins B, H, and L were carried out with enzyme, purchased from Athens Research and Technology, Inc., prepared from human liver tissue. […] A stock substrate solution of Cbz-Phe-Arg-AMC was prepared at a concentration of 50 mM in dimethyl sulfoxide. This substrate was diluted into the assay for a final substrate concentration of 10 μM in the rat cathepsin K, human cathepsin K, and human cathepsin B assays; a final substrate concentration of 5 μM in the human cathepsin L assay; and a final substrate concentration of 2 μM in the human cathepsin V assay.
All assays contained 10% dimethyl sulfoxide. […] All assays were conducted at 30° C. Product fluorescence (excitation at 360 nm; emission at 440 nm, (except cathepsin H which used excitation at 340 nm; emission at 420 nm)) was monitored with a PerSeptive Biosystems Cytofluor II fluorescence plate reader. Product progress curves were generated over 2.3 h monitoring the formation of 7-amino-4-methylcoumarin product (or β-naphthalamide for cathepsin H).
Two liters of Spodoptera frugiperda (Sf-9) cells (ATCC) were grown in Grace's Supplemented medium (Life Technologies) supplemented with 2 g/L glucose, 10% fetal bovine serum (HyClone) and 0.1% pluronic F-68 (Life Technologies). […] The cells continued to grow for 72 h post-infection, before the virus was harvested by centrifugation at 1400×g for 30 min.
One and one-half liters of Trichoplusia ni (T. ni) High Five (™) cells [JRH Biosciences, Woodland, Calif. […] Media were separated from cells at a rate of 1 L/min using the Centritech 100 (™) continuous-flow centrifuge (DuPont) operating at 200×g.
Protein Purification: Media (human and rat) were filtered through a Whatman 3 filter, and then loaded onto a 25 mL Poros HS II (26 mm×47 mm) cation exchange column equilibrated in 25 mM sodium acetate at pH 5.5 (equilibration buffer). The column was washed until the absorbance reached the baseline value, and then the protein was eluted with a linear gradient from 0-2 M sodium chloride in the equilibration buffer. Column fractions were analyzed by SDS-PAGE, N-terminal sequencing, and mass spectrometry. Fractions containing the proform of cathepsin K were pooled and frozen at −80° C. The proform was concentrated in an Amicon Centriprep 10 and fractionated with a Superdex 75 column (26 mm×600 mm, Pharmacia) equilibrated in 400 mM sodium chloride, 25 mM sodium acetate at pH 5.5.
Cathepsin K Activation: The proform of cathepsin K was converted to mature cathepsin K by brief exposure to pH 4 in the presence of 5 mM L-cysteine. Typically, 5 mM L-cysteine was added to 10 mL of approximately 1 mg/mL procathepsin K. One mL of this solution was diluted ten-fold into 450 mM sodium acetate at pH 4.0 containing 5 mM L-cysteine. This solution was reacted at 23° C. for 2 min before neutralization with 2 mL 1.8 M sodium acetate at pH 6.0. The neutralized sample was added to the remaining 9 mL of procathepsin K. The mixture was incubated at 4° C. for 2-3 days. The activated cathepsin K was chromatographed on a Poros HS II column as described above.
Potential inhibitors were evaluated using the progress curve method. Assays were carried out in the presence of variable concentrations of test compound. Reactions were initiated by addition of buffered solutions of inhibitor and substrate to enzyme. Data analysis was conducted according to one of two procedures depending on the appearance of the progress curves in the presence of inhibitors. […] Ki values were calculated from IC50 values using equation 2 assuming a competitive model.

Compound	pKi [1]	melting point
CCCC[C@H](NC(=O)OCC1(COc2ncnc3ccsc23)CCC1)C(=O)C(=O)N[C@H](C)c1ccccc1 [Example 29, {1-[(thieno[3,2-d]pyrimidin-4-yloxy)methyl]cyclobutyl}methyl (1S)-1-(oxo{[(1R)-1-phenylethyl]amino}acetyl)pentylcarbamate]	7.00 to 8.00	
CCCC[C@H](NC(=O)OCC1(COc2ncccn2)CCC1)C(=O)C(=O)N[C@H](C)c1ccccc1 [Example 30, {1-[(2-pyrimidinyloxy)methyl]cyclobutyl}methyl (1S)-1-(oxo {[(1R)-1-phenylethyl]amino}acetyl)pentylcarbamate]	6.00 to 7.00	
CCCC[C@H](NC(=O)OCC1(COc2nc(-c3ccc(C)cc3)cs2)CCC1)C(=O)C(=O)N[C@H](C)c1ccccc1 [Example 31, [1-({[4-(4-methylphenyl)-1,3-thiazol-2-yl]oxy}methyl)cyclobutyl]methyl (1S)-1-(oxo{[(1R)-1-phenylethyl]amino}acetyl)pentylcarbamate]	6.00 to 7.00	
CCCC[C@H](NC(=O)OCC1(CSc2nccc(-c3ccc(Cl)cc3)n2)CCC1)C(=O)C(=O)N[C@H](C)c1ccccc1 [Example 33, [1-({[4-(4-chloro phenyl)-2-pyrimidinyl]sulfanyl}methyl)cyclobutyl]methyl (1S)-1-(oxo{[(1R)-1-phenylethyl]amino}acetyl)pentylcarbamate]	8.00 to 9.00	
CCCC[C@H](NC(=O)OCC1(CSc2ncc(-c3ccc(Cl)cc3)n2C)CCC1)C(=O)C(=O)N[C@H](C)c1ccccc1 [Example 34, [1-({[5-(4-chlorophenyl)-1-methyl-1H-imidazol-2-yl]sulfanyl}methyl)cyclobutyl]methyl (1S)-1-(oxo{[(1R)-1-phenylethyl]amino}acetyl)pentylcarbamate]	6.00 to 7.00	
CCCC[C@H](NC(=O)OCC1(CCSc2nccn2C)CCC1)C(=O)C(=O)N[C@H](C)c1ccccc1 [Example 36, (1-{2-[(1-methyl-1H-imidazol-2-yl)sulfanyl]ethyl}cyclobutyl)methyl (1S)-1-(oxo{[(1R)-1-phenylethyl]amino}acetyl)pentylcarbamate]	< 6.00	

Continued, values first:

pKi [1]	melting point	Compound
8.00 to 9.00	96 to 98 °C	CCCC[C@H](NC(=O)OCC1(Cc2ccccc2)CCC1)C(=O)C(=O)N[C@H](C)c1ccccc1 [Example 5, (1-Benzylcyclobutyl)methyl(1S)-1-(oxo{[(1R)-1-phenylethyl]amino}acetyl)pentylcarbamate]
7.00 to 8.00	86 to 88 °C	CCCC[C@H](NC(=O)OCC1(CCc2ccccc2)CCC1)C(=O)C(=O)N[C@H](C)c1ccccc1 [Example 6, [1-(2-Phenylethyl)cyclobutyl]methyl(1S)-1-(oxo{[(1R)-1-phenylethyl]amino}acetyl)pentylcarbamate]
7.00 to 8.00	91 to 93 °C	CCCC[C@H](NC(=O)OCC1(CCCc2ccccc2)CCC1)C(=O)C(=O)N[C@H](C)c1ccccc1 [Example 7, [1-(3-Phenylpropyl)cyclobutyl]methyl(1S)-1-(oxo{[(1R)-1-phenylethyl]amino}acetyl)pentylcarbamate]
7.00 to 8.00	108 to 110 °C	CCCC[C@H](NC(=O)OCC1(Cc2ccccc2)CCCC1)C(=O)C(=O)N[C@H](C)c1ccccc1 [Example 8, (1-Benzylcyclopentyl)methyl(1S)-1-(oxo{[(1R)-1-phenylethyl]amino}acetyl)pentylcarbamate]
< 6.00		CCCC[C@H](NC(=O)OCC1(CCCSc2nccn2C)CCC1)C(=O)C(=O)N[C@H](C)c1ccccc1 [Example 37, (1-{3-[(1-methyl-1H-imidazol-2-yl)sulfanyl]propyl}cyclobutyl)methyl (1S)-1-(oxo{[(1R)-1-phenylethyl]amino}acetyl)pentylcarbamate]
< 6.00		CCCC[C@H](NC(=O)OCC1(CCCOc2ccnc(Cl)n2)CCC1)C(=O)C(=O)N[C@H](C)c1ccccc1 [Example 38, (1-{3-[(2-chloro-4-pyrimidinyl)oxy]propyl}cyclobutyl)methyl (1S)-1-(oxo{[(1R)-1-phenylethyl]amino}acetyl)pentylcarbamate]
